We go through twelve substances from the OligoGym collection.

For this data set, the target named is HBV. Conditions: ASO.

“And” between values parts separate entries of the source, which are not always exact repeats. Equal entries are not always repeated. HELM strings list units from the 5' end as sugar, base in round brackets, then linkage (d deoxyribose, r ribose, m 2'-O-methyl, p phosphodiester). Methylation of C is not given here. [moe] = 2'-O-(2-methoxyethyl) (MOE); [cEt] = constrained ethyl (cEt); [sp] = phosphorothioate linkage

In the case of “RNA1{[moe](A)[sp].[moe](G)[sp].[moe](G)[sp].[moe](A)[sp].[moe](G)[sp].d(T)[sp].d(T)[sp].d(C)[sp].d(C)[sp].d(G)[sp].d(C)[sp].d(A)[sp].d(G)[sp].d(T)[sp].[moe](A)[sp].[moe](T)}$$$$V2.0”, under “HepG2, 0.07 µM”, the target mRNA inhibition was 62% and 48%.

Regarding “RNA1{[moe](T)[sp].[cEt](T)[sp].d(A)[sp].d(T)[sp].d(G)[sp].d(C)[sp].d(C)[sp].d(T)[sp].d(A)[sp].d(C)[sp].d(A)[sp].d(G)[sp].[cEt](C)[sp].[moe](C)[sp].[cEt](T)[sp].[moe](C)}$$$$V2.0”, the target mRNA inhibition (HepG2, 0.07 µM) was 50% and 56%.

Consider “RNA1{[moe](A)[sp].[moe](G)[sp].[moe](A)[sp].[moe](A)[sp].d(G)[sp].d(T)[sp].d(C)[sp].d(C)[sp].d(A)[sp].d(C)[sp].d(C)[sp].d(A)[sp].d(C)[sp].[moe](G)[sp].[moe](A)[sp].[moe](G)[sp].[moe](T)}$$$$V2.0”, for which the target mRNA inhibition (HepG2, 0.07 µM) is 32% and 20%.

As for “RNA1{[moe](T)[sp].[moe](T)[sp].[moe](T)[sp].d(A)[sp].d(T)[sp].d(G)[sp].d(C)[sp].d(C)[sp].d(T)[sp].d(A)[sp].d(C)[sp].d(A)[sp].d(G)[sp].[cEt](C)[sp].[cEt](C)[sp].[cEt](T)}$$$$V2.0”, the target mRNA inhibition (HepG2, 0.07 µM) is 45% and 55%.

Turning to “RNA1{[moe](C)[sp].[moe](A)[sp].d(C)[sp].d(T)[sp].d(A)[sp].d(G)[sp].d(T)[sp].d(A)[sp].d(A)[sp].d(A)[sp].d(C)[sp].[moe](T)[sp].[moe](G)[sp].[moe](A)[sp].[moe](G)[sp].[moe](C)}$$$$V2.0”, the target mRNA inhibition (HepG2, 0.07 µM) was 52% and 53%.

“RNA1{[moe](T)[sp].[moe](C)[sp].[moe](C)[sp].[moe](G)[sp].d(C)[sp].d(A)[sp].d(G)[sp].d(T)[sp].d(A)[sp].d(T)[sp].d(G)[sp].d(G)[sp].d(A)[sp].[moe](T)[sp].[moe](C)[sp].[moe](G)[sp].[moe](G)}$$$$V2.0”: the target mRNA inhibition (HepG2, 0.07 µM) is 72% and 65%.

With “RNA1{[moe](A)[sp].[moe](T)[sp].d(T)[sp].d(T)[sp].d(A)[sp].d(T)[sp].d(G)[sp].d(C)[sp].d(C)[sp].d(T)[sp].d(A)[sp].[moe](C)[sp].[moe](A)[sp].[moe](G)[sp].[moe](C)[sp].[moe](C)[sp].[moe](T)}$$$$V2.0”, the target mRNA inhibition runs as follows: (HepG2, 0.0092593 µM) 0%; (HepG2, 0.0277778 µM) 21%; (HepG2, 0.07 µM) 71% and 65%; (HepG2, 0.0833333 µM) 22%; (HepG2, 0.25 µM) 53%.

Regarding “RNA1{[moe](G)[sp].[moe](C)[sp].[moe](A)[sp].[moe](G)[sp].[moe](T)[sp].d(A)[sp].d(T)[sp].d(G)[sp].d(G)[sp].d(A)[sp].d(T)[sp].d(C)[sp].d(G)[sp].d(G)[sp].[moe](C)[sp].[moe](A)}$$$$V2.0”, where the note is “HepG2, 0.07 µM”, the target mRNA inhibition was 67% and 61%.

As to “RNA1{[moe](A)[sp].[moe](A)[sp].[moe](C)[sp].[moe](C)[sp].[moe](A)[sp].d(C)[sp].d(T)[sp].d(G)[sp].d(A)[sp].d(A)[sp].d(C)[sp].d(A)[sp].d(A)[sp].d(A)[sp].[moe](T)[sp].[moe](G)[sp].[moe](G)}$$$$V2.0”, the target mRNA inhibition (HepG2, 0.07 µM) was 55% and 52%.

As for “RNA1{[moe](G)[sp].[moe](A)[sp].[moe](A)[sp].d(G)[sp].d(C)[sp].d(G)[sp].d(A)[sp].d(A)[sp].d(G)[sp].d(T)[sp].d(G)[sp].d(C)[sp].[moe](A)[sp].[moe](C)[sp].[moe](A)[sp].[moe](C)[sp].[moe](G)}$$$$V2.0”, where the note is “HepG2, 0.07 µM”, the target mRNA inhibition is 76% and 60%.

In the case of “RNA1{[moe](A)[sp].[moe](C)[sp].d(T)[sp].d(A)[sp].d(G)[sp].d(T)[sp].d(A)[sp].d(A)[sp].d(A)[sp].d(C)[sp].d(T)[sp].[moe](G)[sp].[moe](A)[sp].[moe](G)[sp].[moe](C)[sp].[moe](C)[sp].[moe](A)}$$$$V2.0”, the target mRNA inhibition (HepG2, 0.07 µM) was found to be 61%.

For “RNA1{[moe](C)[sp].[moe](G)[sp].[moe](A)[sp].d(A)[sp].d(C)[sp].d(C)[sp].d(A)[sp].d(C)[sp].d(T)[sp].d(G)[sp].d(A)[sp].d(A)[sp].[moe](C)[sp].[moe](A)[sp].[moe](A)[sp].[moe](A)}$$$$V2.0”, the target mRNA inhibition (HepG2, 0.07 µM) was 48% and 28%.
